# Like-named read-outs stand apart in the source and are kept apart here. Residues, ends and D or L forms follow the SMILES beside them. *: point of attachment. Propanoyl(3-(9AA-2-yl)) = Nc1c2ccccc2nc2ccc(CCC(=O)*)cc12
# Experiments:
# [1] = target: T1, Set7/9 (Homo sapiens, UniProt Q8WTS6); assay: Set7/9 FLT protease protection assay; format: biochemical; details: for overall lifetime change between substrate and product / maximum range of the assay: Set7/9 time-course, 1 μM peptide
# T1 construct: purchased BPS BioScience (via AMSBio, UK)
# T1 sequence (Q8WTS6 1-366): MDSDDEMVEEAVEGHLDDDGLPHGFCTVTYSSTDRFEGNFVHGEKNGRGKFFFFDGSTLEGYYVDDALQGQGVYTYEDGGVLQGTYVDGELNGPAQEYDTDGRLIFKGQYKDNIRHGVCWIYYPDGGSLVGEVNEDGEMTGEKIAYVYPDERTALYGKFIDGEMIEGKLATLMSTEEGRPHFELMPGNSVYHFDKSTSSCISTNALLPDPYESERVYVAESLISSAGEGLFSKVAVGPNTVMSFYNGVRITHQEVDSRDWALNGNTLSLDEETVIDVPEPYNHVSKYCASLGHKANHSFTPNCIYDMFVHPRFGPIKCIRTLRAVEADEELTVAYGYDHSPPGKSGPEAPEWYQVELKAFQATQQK
# Protocol: The assay was performed at room temperature and samples taken after 0 h, 2 h, and 6 h time intervals respectively.
# 10 μl of Endo-LysC (final concentration 2 nM) was added to each well and the plate incubated at room temperature for 15 mins before the FLTs were measured using a NanoTaurus plate reader. Peptide only controls were included at the same concentration for comparison.
# Assays were performed in a 20 μl volume in a 384-well black microplate and contained peptide 12 (1 μM) and Set7/9 enzyme (100 nM, 50 nM, 25 nM, or 12.5 nM) in assay buffer. Reactions were stopped at regular intervals by the addition of 10 μl Endo-LysC (final concentration 2 nM). FLTs were measured following 15 min incubation with Endo-LysC at room temperature. All measurements were performed in duplicate using a NanoTaurus plate reader.
# The dependence of the Set7/9 assay on SAM co-factor was investigated using peptide 13 as the substrate. The assay was performed in a 384-well microplate at room temperature for 2 h in assay buffer (20 μl) using 25 nM Set7/9 and 1 μM substrate. SAM concentrations were varied from 100 μM-1.7 nM. On completion, Endo-LysC (2 nM) was added to each well and FLTs measured following a 20 min incubation period.
# (§2) Reactions were performed in a 384-well microplate at room temperature for 2 h and stopped by the addition of Endo-LysC (2 nM).
# Alternatively, assays were performed in a 384-well microplate at room temperature with an assay volume of 20 μl per well. To wells containing recombinant Set7/9 enzyme and peptide 12 or 13 in assay buffer (10 μl) was added SAM (10 μl) in assay buffer. Controls containing peptide only were also included. The plate was shaken and then sealed with a coverslip. The final concentration of Set7/9 in the assay varied between 100 nM and 12.5 nM whilst the concentration of peptide and SAM were kept constant at 1 μM and 100 μM respectively. Assays were started at different times and stopped together after 120 min by the addition of Endo-LysC (10 μl in assay buffer; final concentration 2 nM). Following incubation at room temperature for 15 min, the microplate was centrifuged at 500 rpm for 1 min and FLTs measured. All measurements were performed in duplicate.
# For inhibitor titrations, compounds (5 μl) were preincubated with Set7/9 and peptide 13 (5 μl) for 10 min at room temperature prior to addition of SAM (10 μl). Controls containing no SAM or no inhibitor were included.
# [2] = target: T2, EZH2/EED/SUZ12/RbAp48/AEBP2 complex (Homo sapiens, UniProt Q15910); details: read-out: KM (app) for SAM; peptide 20 (1 μM), 100 ng/well EZH2 complex, 5 h
# T2 sequence (Q15910 whole entry): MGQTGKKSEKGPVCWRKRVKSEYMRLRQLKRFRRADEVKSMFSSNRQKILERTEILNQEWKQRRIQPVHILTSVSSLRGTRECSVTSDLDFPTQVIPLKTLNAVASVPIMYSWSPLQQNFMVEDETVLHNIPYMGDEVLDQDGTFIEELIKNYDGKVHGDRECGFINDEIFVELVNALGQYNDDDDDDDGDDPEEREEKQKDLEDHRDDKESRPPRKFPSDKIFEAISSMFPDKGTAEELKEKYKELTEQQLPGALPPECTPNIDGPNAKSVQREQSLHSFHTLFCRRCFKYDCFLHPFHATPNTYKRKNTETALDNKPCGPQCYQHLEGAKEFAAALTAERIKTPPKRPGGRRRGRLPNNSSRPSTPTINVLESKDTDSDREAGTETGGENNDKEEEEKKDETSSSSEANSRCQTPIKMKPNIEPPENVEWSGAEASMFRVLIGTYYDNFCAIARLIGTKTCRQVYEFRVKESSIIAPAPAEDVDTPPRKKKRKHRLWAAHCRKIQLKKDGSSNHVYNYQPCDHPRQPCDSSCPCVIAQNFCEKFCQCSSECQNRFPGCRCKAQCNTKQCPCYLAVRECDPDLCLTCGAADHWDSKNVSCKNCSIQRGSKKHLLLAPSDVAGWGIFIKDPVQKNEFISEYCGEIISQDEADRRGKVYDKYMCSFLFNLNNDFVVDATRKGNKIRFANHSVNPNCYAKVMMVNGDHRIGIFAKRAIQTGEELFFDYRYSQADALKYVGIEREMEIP
# T2 sequence (O75530 whole entry partner): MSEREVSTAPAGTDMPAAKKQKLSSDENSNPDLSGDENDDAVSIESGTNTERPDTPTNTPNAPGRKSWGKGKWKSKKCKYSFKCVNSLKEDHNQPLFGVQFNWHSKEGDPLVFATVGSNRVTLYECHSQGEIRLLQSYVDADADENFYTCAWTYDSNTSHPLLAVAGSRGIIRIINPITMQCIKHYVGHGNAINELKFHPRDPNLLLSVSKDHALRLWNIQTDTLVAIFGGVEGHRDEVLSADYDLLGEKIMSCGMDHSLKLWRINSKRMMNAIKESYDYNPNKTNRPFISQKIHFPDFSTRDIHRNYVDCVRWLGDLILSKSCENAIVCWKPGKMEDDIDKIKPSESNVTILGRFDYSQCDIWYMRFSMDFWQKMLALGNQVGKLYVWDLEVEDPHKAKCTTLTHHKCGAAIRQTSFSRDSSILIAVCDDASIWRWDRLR
# T2 sequence (Q15022 whole entry partner): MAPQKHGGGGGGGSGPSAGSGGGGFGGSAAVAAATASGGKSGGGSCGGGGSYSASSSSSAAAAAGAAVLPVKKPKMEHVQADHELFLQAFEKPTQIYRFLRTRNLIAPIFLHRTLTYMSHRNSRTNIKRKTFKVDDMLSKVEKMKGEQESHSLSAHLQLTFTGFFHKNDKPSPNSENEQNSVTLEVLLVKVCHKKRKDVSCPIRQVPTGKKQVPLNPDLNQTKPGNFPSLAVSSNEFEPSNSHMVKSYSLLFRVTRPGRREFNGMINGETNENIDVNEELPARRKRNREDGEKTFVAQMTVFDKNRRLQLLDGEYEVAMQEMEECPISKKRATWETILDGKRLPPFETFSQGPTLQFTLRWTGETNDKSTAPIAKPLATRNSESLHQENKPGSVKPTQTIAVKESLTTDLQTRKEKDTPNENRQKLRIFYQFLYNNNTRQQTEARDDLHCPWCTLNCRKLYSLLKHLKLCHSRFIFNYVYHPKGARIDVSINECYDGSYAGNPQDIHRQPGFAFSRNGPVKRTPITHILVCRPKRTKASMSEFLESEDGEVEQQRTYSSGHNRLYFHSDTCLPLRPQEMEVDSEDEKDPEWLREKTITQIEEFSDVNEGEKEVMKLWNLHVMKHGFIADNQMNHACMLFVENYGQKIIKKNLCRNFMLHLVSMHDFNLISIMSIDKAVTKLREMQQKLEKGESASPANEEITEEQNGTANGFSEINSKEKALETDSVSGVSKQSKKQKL
# T2 sequence (Q09028 whole entry partner): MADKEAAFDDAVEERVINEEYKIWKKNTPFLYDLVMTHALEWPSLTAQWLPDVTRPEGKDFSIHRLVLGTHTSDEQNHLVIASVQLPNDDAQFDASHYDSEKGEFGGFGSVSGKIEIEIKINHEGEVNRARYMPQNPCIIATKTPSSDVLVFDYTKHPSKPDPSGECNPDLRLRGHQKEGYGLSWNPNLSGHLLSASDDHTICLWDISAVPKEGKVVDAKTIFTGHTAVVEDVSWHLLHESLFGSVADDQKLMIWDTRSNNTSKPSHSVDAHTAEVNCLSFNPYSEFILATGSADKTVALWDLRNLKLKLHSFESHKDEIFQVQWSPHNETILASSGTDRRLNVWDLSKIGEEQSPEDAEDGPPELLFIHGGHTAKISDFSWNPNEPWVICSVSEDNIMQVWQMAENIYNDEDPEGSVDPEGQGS
# T2 sequence (Q6ZN18 whole entry partner): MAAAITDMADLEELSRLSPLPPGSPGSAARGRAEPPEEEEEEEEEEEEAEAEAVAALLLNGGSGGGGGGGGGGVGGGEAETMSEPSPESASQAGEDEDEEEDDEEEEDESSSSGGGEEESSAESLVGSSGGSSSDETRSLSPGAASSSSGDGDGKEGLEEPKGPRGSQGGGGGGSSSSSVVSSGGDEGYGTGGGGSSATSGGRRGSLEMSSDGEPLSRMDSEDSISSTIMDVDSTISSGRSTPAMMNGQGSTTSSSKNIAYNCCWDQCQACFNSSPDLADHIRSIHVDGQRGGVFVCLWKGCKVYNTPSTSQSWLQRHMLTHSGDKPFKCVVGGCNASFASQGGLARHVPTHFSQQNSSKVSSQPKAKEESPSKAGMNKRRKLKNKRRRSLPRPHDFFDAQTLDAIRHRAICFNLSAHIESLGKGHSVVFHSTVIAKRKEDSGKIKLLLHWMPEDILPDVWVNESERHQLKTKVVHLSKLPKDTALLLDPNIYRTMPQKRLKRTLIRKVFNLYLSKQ
# Protocol: The dependence of the EZH2 assay on SAM co-factor was investigated using peptide 20 as the substrate. The assay was performed in a 384-well hi-base microplate at room temperature for 5 h in assay buffer (10 μl) using 100 ng/well EZH2 complex and 1 μM substrate. SAM concentrations were varied from 100 μM-0.05 μM. On completion, Endo-LysC (4 nM) was added to each well and FLTs measured following a 15 min incubation period. The data was fitted to a variable slope dose-response model in Graph Pad Prism to determine the KM (app) for SAM.
# For SAM titrations, to wells containing varying concentrations of SAM in assay buffer (2.5 μl) was added EZH2 complex in assay buffer (2.5 μl). Reactions were initiated by the addition of peptide 20 in assay buffer (5 μl). The plate was incubated at room temperature for 5 h and then 10 μl of Endo-LysC in assay buffer was added to each well. Following a further 15 min incubation at room temperature, FLTs were measured. All measurements were performed in triplicate.
# [3] = target: T2, EZH2/EED/SUZ12/RbAp48/AEBP2 complex; details: read-out: KM for SAM, literature value; literature (Sneeringer et al. 2010), radiometric assay format; cited from earlier work
# [4] = target: T3, G9a (Homo sapiens, UniProt Q96KQ7); assay: G9a FLT protease protection assay; format: biochemical; details: for G9a concentration sufficient to confer complete protease protection: G9a (Abcam), 2 nM Endo-LysC
# T3 construct: purchased Millipore; Abcam; BPS Bioscience (via AMSBio)
# T3 sequence (Q96KQ7 1-1210): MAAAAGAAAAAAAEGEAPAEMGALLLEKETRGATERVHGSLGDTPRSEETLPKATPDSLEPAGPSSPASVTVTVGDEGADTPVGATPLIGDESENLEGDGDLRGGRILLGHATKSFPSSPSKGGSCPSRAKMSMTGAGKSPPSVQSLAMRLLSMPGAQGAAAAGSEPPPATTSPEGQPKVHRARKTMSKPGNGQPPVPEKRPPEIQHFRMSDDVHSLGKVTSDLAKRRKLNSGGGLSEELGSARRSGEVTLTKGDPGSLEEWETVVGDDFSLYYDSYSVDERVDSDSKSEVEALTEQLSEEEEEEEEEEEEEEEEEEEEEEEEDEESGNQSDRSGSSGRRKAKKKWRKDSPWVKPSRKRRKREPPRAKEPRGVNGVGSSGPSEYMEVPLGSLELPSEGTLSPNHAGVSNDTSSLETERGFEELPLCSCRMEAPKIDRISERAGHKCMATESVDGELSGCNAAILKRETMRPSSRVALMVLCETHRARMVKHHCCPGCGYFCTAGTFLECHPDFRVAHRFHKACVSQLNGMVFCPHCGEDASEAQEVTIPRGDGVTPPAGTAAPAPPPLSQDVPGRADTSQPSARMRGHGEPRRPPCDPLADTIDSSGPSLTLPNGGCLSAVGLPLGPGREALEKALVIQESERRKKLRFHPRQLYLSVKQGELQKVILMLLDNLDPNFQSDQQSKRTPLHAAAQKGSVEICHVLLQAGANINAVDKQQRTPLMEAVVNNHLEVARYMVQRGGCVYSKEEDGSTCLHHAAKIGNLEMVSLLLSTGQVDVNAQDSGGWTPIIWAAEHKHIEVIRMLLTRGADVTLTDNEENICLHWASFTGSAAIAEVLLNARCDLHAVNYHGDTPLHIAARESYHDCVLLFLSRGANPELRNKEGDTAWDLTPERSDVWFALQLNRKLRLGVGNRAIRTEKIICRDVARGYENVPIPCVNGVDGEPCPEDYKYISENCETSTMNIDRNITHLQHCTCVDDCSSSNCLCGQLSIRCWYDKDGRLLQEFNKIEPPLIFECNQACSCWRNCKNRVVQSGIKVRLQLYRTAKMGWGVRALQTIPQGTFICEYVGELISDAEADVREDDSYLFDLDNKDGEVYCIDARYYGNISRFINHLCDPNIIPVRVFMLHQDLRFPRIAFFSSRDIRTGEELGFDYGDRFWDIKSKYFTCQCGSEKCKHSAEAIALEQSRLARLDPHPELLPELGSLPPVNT
# Protocol: Assays were performed at room temperature for 2 h and then FLTs measured using a NanoTaurus plate reader (Edinburgh Instruments Ltd.). Each well was then treated with 2 nM protease (Endo-LysC) (10 μl) and the plate incubated at room temperature for 60 min. The FLTs were then re-measured. Controls were included containing no G9a or no protease.
# Peptides 4 and 9 were incubated with SAM (100 μM) and varying concentrations of G9a (Abcam) in 20 μl of assay buffer in a 384-well black microplate (Greiner). The assays were performed at room temperature for 2 h after which FLTs were measured as previously described. 2 nM Endo-LysC (10 μl per well) was then added and FLTs re-measured following 10 min and 60 min incubation with the protease.
# The dependence of the G9a assay on SAM was investigated using both peptide 4 and 9 as substrates. Assays were performed in a 384-well microplate in assay buffer (20 μl) using either 25 nM or 10 nM G9a and 1 μM substrate. SAM concentrations were varied from 200 μM-0.4 μM and assays were incubated for 2 h at room temperature. On completion, Endo-LysC (2 nM) was added to each well and FLTs measured following a 10 min incubation period.
# as §2
# Alternatively, assays were performed in a 384-well microplate at room temperature with an assay volume of 20 μl per well. To wells containing recombinant G9a enzyme in assay buffer (5 μl) was added peptide in assay buffer (10 μl). Reactions were started by the addition of SAM (5 μl). The plate was shaken and then sealed with a coverslip. […] The concentration of peptide was kept constant at 1 μM. Assays were started at different times and stopped together after 2 h by the addition of Endo-LysC (10 μl in assay buffer; final concentration 2 nM). Following incubation at room temperature for 10 min, the microplate was centrifuged at 500 rpm for 1 min and FLTs measured.
# For inhibitor titrations, compounds (5 μl) were preincubated with G9a (5 μl) for 30 min at room temperature prior to addition of peptide (5 μl) and SAM (5 μl). Controls containing no SAM or no inhibitor were included.
# [5] = target: T1, Set7/9; details: literature (Gauthier et al. 2012), lower concentration of SAM; read-out: reported IC50; cited from earlier work
# [6] = target: T4, PAD4 (Homo sapiens, UniProt Q9UM07); assay: PAD4 FLT protease protection assay; format: biochemical; details: 15 μM peptide, 30 nM PAD4, diluted to 1 μM; 10 nM trypsin 10 min
# T4 construct: purchased Origene (via Insight Biotechnology)
# T4 sequence (Q9UM07 whole entry): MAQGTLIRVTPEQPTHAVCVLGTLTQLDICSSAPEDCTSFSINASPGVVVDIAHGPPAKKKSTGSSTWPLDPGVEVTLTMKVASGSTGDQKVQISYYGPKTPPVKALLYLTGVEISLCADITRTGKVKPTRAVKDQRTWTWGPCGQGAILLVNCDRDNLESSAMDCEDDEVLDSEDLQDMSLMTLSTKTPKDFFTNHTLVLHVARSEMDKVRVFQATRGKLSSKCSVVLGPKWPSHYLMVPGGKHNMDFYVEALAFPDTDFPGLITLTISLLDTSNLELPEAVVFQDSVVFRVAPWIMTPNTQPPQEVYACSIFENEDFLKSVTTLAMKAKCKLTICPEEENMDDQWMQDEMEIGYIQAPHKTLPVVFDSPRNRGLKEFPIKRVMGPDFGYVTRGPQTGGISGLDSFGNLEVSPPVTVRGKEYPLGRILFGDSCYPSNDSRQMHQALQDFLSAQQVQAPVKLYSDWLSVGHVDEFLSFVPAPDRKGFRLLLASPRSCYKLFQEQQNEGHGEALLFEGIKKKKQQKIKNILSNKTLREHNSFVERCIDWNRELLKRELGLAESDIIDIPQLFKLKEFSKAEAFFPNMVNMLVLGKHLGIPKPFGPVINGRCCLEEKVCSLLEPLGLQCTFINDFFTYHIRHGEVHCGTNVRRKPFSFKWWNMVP
# Protocol: With a suitable HPLC method in hand, PAD4 assays were set up for each of the peptide substrates and aliquots taken at regular time intervals with product formation monitored by RP-HPLC. Each assay was performed in a micro-centrifuge tube containing 15 μM peptide and 30 nM PAD4 (Origene) in assay buffer (300 μl). The assays were performed at room temperature and samples taken at 0 min, 30 min, and 60 min time intervals.
# In order to test if citrullination of peptides 1 and 3 by PAD4 had conferred protection against trypsin, the assay mixtures for these peptides (described above) were diluted to 1 μM concentration with assay buffer and 20 μl of each added to three wells of a 384-well black microplate. The FLTs were measured using the NanoTaurus plate reader as described previously. 10 μl of trypsin (final concentration 10 nM) was then added to each well and the plate incubated at room temperature for 10 mins before the FLTs were re-measured. Peptide only controls were included at the same concentration for comparison.
# The dependence of the PAD4 assay on peptide substrate concentration was investigated. […] From FIG. 73, a KM of 180 nM was determined for substrate 1. […]
# (§1) Where citrullination of the peptide substrate was confirmed, the assay mixtures were diluted 15-fold with assay buffer and transferred to a 384-well microplate (20 μl per well) and FLTs measured. […] FLTs were then re-measured. […]
# [7] = target: T5, PAD2 (Homo sapiens, UniProt Q9Y2J8); assay: PAD2 FLT protease protection assay; format: biochemical; details: 15 μM peptide, 30 nM PAD2, diluted to 1 μM; 10 nM trypsin 10 min
# T5 construct: purchased Modiquest Research
# T5 sequence (Q9Y2J8 whole entry): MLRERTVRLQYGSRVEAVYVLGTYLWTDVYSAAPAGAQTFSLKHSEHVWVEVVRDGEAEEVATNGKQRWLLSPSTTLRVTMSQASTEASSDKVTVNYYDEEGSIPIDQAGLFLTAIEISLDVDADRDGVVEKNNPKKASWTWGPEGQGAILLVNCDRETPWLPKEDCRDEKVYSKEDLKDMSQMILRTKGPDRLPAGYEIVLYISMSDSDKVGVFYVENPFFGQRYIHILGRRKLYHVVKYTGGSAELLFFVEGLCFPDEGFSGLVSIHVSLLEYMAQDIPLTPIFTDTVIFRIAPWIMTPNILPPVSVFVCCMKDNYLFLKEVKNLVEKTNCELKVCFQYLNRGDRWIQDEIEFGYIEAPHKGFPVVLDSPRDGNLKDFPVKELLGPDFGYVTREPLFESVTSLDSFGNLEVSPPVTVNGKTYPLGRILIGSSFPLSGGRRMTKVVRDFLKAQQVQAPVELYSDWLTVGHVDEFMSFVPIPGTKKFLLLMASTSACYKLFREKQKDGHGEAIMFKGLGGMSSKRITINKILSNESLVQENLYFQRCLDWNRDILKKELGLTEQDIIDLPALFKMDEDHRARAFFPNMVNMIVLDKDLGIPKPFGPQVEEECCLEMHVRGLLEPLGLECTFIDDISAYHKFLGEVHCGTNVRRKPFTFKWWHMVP
# Protocol: Accordingly, peptide 1 (15 μM) was incubated with PAD2 (30 nM) in assay buffer (20 mM Tris pH 8, 200 μM CaCl2, 5 mM DTT, 0.01% CHAPS) (300 μl) and aliquots taken at regular time intervals and analysed by RP-HPLC. The assays were performed at room temperature and samples taken at 0 min, 30 min, and 120 min time intervals
# In order to test if citrullination of peptide 1 by PAD2 had conferred protection against trypsin, the assay mixture was diluted to 1 μM concentration with assay buffer and 20 μl added to three wells of a 384-well black microplate. 10 μl of trypsin (final concentration 10 nM) was added to each well and the plate incubated at room temperature for 10 mins before the fluorescence lifetimes (FLTs) were measured using the NanoTaurus plate reader as described in the Experimental section. Peptide only controls were included at the same concentration for comparison.
# For HPLC monitoring, assays were performed at room temperature in micro-centrifuge tubes with a total assay volume of 300 μl. Reactions were started by addition of peptide 1 to solutions containing recombinant PAD2 enzyme. […]
# as §1
# [8] = target: T6, PRMT5 (Homo sapiens, UniProt O14744); assay: PRMT5 FLT protease protection assay; format: biochemical
# T6 construct: purchased BPS BioScience (via AMSBio, UK)
# T6 sequence (O14744 whole entry): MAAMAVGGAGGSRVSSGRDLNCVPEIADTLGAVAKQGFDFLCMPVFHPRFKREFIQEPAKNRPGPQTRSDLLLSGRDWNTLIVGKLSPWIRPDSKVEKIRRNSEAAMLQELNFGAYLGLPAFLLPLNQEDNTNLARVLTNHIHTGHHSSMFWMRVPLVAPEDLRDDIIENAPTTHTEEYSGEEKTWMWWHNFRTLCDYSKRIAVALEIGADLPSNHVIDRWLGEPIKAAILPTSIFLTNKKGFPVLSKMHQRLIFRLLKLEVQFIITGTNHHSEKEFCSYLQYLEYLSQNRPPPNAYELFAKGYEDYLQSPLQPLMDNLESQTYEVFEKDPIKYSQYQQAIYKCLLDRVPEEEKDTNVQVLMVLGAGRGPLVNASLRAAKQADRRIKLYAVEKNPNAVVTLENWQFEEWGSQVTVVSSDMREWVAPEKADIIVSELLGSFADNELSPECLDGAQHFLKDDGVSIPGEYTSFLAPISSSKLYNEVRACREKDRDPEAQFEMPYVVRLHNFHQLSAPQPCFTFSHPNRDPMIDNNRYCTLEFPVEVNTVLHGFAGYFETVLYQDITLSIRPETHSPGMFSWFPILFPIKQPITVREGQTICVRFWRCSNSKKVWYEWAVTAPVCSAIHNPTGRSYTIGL
# Protocol: The assay was performed at room temperature and samples taken after 0 h, 3.5 h, and 17.5 h time intervals respectively.
# 10 μl of Endo-ArgC (final concentration 10 nM) was added to each well and the plate incubated at room temperature for 60 mins before FLTs were measured. Peptide only controls were included at the same concentration for comparison.
# Conditions were as follows: sinefungin (2 mM-0.1 μM), PRMT5 (50 nM), SAM (10 μM) and peptide 15 (1 μM) in assay buffer (20 μl). Reactions were performed in triplicate in a 384-well microplate at room temperature for 3 h and stopped by the addition of Endo-ArgC (1 nM).
# Endo-ArgC (10 μl in assay buffer) was then added to each well and the plate incubated at room temperature for 15 mins. FLTs were then re-measured. All measurements were performed in triplicate and the final concentration of Endo-ArgC in the wells was 10 nM.
# For inhibitor titrations, compounds (5 μl) were preincubated with PRMT5/peptide 15 (5 μl) for 30 min at room temperature prior to the addition of SAM (5 μl). Assays were run for 3 h at room temperature and stopped by the addition of 10 μl Endo-ArgC. FLTs were measured following a 1 h incubation at room temperature. Controls containing no PRMT5 or no inhibitor were also included. All measurements were performed in triplicate.
compound,measurement,setting,value
WARTKQTARK(9AA)STGGKAPRKQLAK-CONH2 [peptide 12],increase in FLT after Endo-LysC for peptide exposed to Set7/9,"[1]; 15 μM peptide, 172 nM Set7/9, 100 μM SAM, diluted to 1 μM, 2 nM Endo-LysC 15 min",no significant increase in FLT
same,overall lifetime change between substrate and product / maximum range of the assay,[1]; 2 nM Endo-LysC 15 min,approximately 2.4 ns
"C[S+](CC[C@H](N)C(=O)[O-])C[C@H]1O[C@@H](n2cnc3c(N)ncnc32)[C@H](O)[C@@H]1O (some centres unmarked) [SAM, S-adenosylmethionine, reference compound]",Km,[2],0.71 µM
same,Km,"[1]; peptide 13 as substrate (1 μM), 25 nM Set7/9, 2 h, read-out: Km (app) for SAM",0.5 µM
same,Km,[3],0.21 to 0.3 µM
same,Km,"[4]; peptides 4 and 9 as substrates (1 μM), 25 nM or 10 nM G9a, 2 h room temperature, read-out: Km (app) for SAM",3 to 11 µM
K(9AA)ARTK(Me)QTARK^9STGGW-CONH2 [peptide 9],G9a concentration sufficient to confer complete protease protection,"[4]; SAM 100 μM, 2 h",50 nM
same,protease protection after G9a treatment,"[4]; G9a (Millipore) 500 nM, SAM 100 μM, 2 h, 2 nM Endo-LysC 60 min",complete protease protection
"Nc1ncnc2c1ncn2[C@@H]1O[C@H](CSCC[C@H](N)C(=O)O)[C@@H](O)[C@H]1O [SAH, S-adenosylhomocysteine, reference compound]",IC50,"[1]; peptide 13 (1 μM), Set7/9 50 nM, SAM 500 nM, 2 h",37 µM
same,IC50,[5],16 µM
C[C@@H](O)[C@H](NC(=O)[C@H](CO)NC(=O)[C@H](CCC(N)=O)NC(=O)[C@H](Cc1c[nH]cn1)NC(=O)[C@@H](N)CCCCNC(=O)CCc1ccc2nc3ccccc3c(N)c2c1)C(=O)N[C@@H](CCCNC(=N)N)C(=O)NCC(=O)N[C@@H](CO)C(=O)NCC(=O)N[C@@H](Cc1c[nH]cn1)C(=O)N[C@@H](Cc1c[nH]c2ccccc12)C(=O)N[C@@H](CCCCN)C(=O)N[C@@H](CCCCN)C(N)=O [peptide 3] (H-K(Propanoyl(3-(9AA-2-yl)))HQSTRGSGHWKK-NH2; N-terminus assumed),increase in FLT after trypsin for peptide exposed to PAD4,[6],no increase in FLT
C[C@@H](O)[C@H](NC(=O)[C@H](CO)NC(=O)[C@H](CCC(N)=O)NC(=O)CCc1ccc2nc3ccccc3c(N)c2c1)C(=O)N[C@@H](CCCNC(=N)N)C(=O)NCC(=O)N[C@@H](CO)C(=O)NCC(=O)N[C@@H](Cc1c[nH]cn1)C(=O)N[C@@H](Cc1c[nH]c2ccccc12)C(=O)N[C@@H](CCCCN)C(=O)N[C@@H](CCCCN)C(N)=O [peptide 1] ({Propanoyl(3-(9AA-2-yl))}-QSTRGSGHWKK-NH2),increase in FLT after trypsin for peptide exposed to PAD2,[7],no increase in FLT
same,increase in FLT after trypsin for peptide exposed to PAD4,[6],no increase in FLT
"Nc1ncnc2c1ncn2[C@@H]1O[C@H](C[C@@H](N)CC[C@H](N)C(=O)O)[C@@H](O)[C@H]1O [sinefungin, reference compound]",IC50,"[8]; peptide 15 (1 μM), PRMT5 50 nM, SAM 10 μM, 3 h",13 µM
WRTKQTARK(9AA)STGGKAPRKQLAK-CONH2 [peptide 13],overall lifetime change between substrate and product / maximum range of the assay,[1]; 2 nM Endo-LysC 15 min,4 ns
Ac-WSGRGKGGK(9AA)GLGKGGAKRHRK-CONH2 [peptide 15],increase in FLT after Endo-ArgC for peptide exposed to PRMT5,"[8]; 150 nM PRMT5, 100 μM SAM, reaction not complete, 10 nM Endo-ArgC 60 min",4.7 ns
9AA-TARK^9STGW-CONH2 [peptide 4],G9a concentration sufficient to confer complete protease protection,"[4]; SAM 100 μM, 2 h",50 nM
